The values below come from US20230141600A1, “IMIDAZOPYRAZINE DERIVATIVES” (priority 2020, published 2023).

SMILES strings stand for the structures. Where a name gives a salt, the structure may show the parent alone.

One test deals with Acinetobacter baumannii ATCC17978. Briefly: 90% growth inhibitory concentration (IC90) determination, antimicrobial susceptibility testing. Type of test: cell-based. The conditions noted are these: ATCC17978, 90% growth inhibition, Iso-Sensitest broth, OD 600 nm over 16 h, 35±2° C., read-out: ATCC 17978 IC90. The method, then: Antimicrobial Susceptibility Testing:
90% Growth Inhibitory Concentration (IC90) Determination
The in vitro antimicrobial activity of the compounds was determined according to the following procedure:
The assay used a 10-points Iso-Sensitest broth medium to measure quantitatively the in vitro activity of the compounds against Acinetobacter baumannii ATCC17961 and ATCC17978.
Stock compounds in DMSO were serially twofold diluted (e.g. range from 50 to 0.097 μM final concentration) in 384 wells microtiter plates and inoculated with 49 μl the bacterial suspension in Iso-Sensitest medium to have a final cell concentration of ˜5×10^(5) CFU/ml in a final volume/well of 50 ul/well. Microtiter plates were incubated at 35±2° C.
Bacterial cell growth was determined with the measurement of optical density at λ=600 nm each minutes over a time course of 16 h. Growth inhibition was calculated during the logarithmic growth of the bacterial cells with determination of the concentration inhibiting 50% (IC50) and 90% (IC90) of the growth.
Table 1 provides the 90% growth inhibitory concentrations (IC90) in micromoles per liter of the compounds of present invention obtained against the strain Acinetobacter baumannii ATCC17978.
Consider `Cc1cc(Nc2nccn3c(-c4ccc(OC(F)F)cc4)cnc23)ccc1C(=O)N1CCN(C(=O)N2CC[N+](C)(C)CC2)CC1` [Example 30, [4-[[3-[4-(Difluoromethoxy)phenyl]imidazo[1,2-a]pyrazin-8-yl]amino]-2-methyl-phenyl]-[4-(4,4-dimethylpiperazin-4-ium-1-carbonyl)piperazin-1-yl]methanone Formate], for which the IC90 amounted to 497 nM. The same measure, in the same setting: as for `COc1ccc(-c2cnc3c(Nc4ccc(C(=O)N5CCN(C(=O)C[N+](C)(C)C)CC5)c(Cl)c4)nccn23)cc1F` [Example 31, [2-[4-[2-Chloro-4-[[3-(3-fluoro-4-methoxyphenyl)imidazo[1,2-a]pyrazin-8-yl]amino]benzoyl]piperazin-1-yl]-2-oxoethyl]-trimethylazanium Formate], the figure is 120 nM; as for `COc1ccc(-c2cnc3c(Nc4ccc(C(=O)N5CCN(C(=O)C[N+](C)(C)C)CC5)c(C)c4)nccn23)cc1F` [Example 32, 2-(4-(4-((3-(3-Fluoro-4-methoxyphenyl)imidazo[1,2-a]pyrazin-8-yl)amino)-2-methylbenzoyl)piperazin-1-yl)-N,N,N-trimethyl-2-oxoethan-1-aminium Iodide], 307 nM. Still for that read-out and setting: the result for `Cc1cc(Nc2nccn3c(-c4ccc(OC(F)F)cc4)cnc23)ccc1C(=O)N1CCN(C(=O)N2CCOC(C[N+](C)(C)C)C2)CC1` (stereo not drawn) [Example 33, [4-[4-[4-[[3-[4-(Difluoromethoxy)phenyl]imidazo[1,2-a]pyrazin-8-yl]amino]-2-methyl-benzoyl]piperazine-1-carbonyl]morpholin-2-yl]methyl-trimethyl-ammonium Formate] reads 996 nM; that for `CN(CCN1CC[N+](C)(C)CC1)C(=O)c1ccc(Nc2nccn3c(-c4ccc(OCC#N)c(F)c4F)cnc23)cc1Cl` [Example 34, 2-Chloro-4-[[3-[4-(cyanomethoxy)-2,3-difluoro-phenyl]imidazo[1,2-a]pyrazin-8-yl]amino]-N-[2-(4,4-dimethylpiperazin-4-ium-1-yl)ethyl]-N-methyl-benzamide iodide], 246 nM.

Consider `COc1ccc(-c2cnc3c(Nc4ccc(C(=O)N(C)CCOCC[N+](C)(C)C)c(C)c4)nccn23)cc1F` [Example 35, 2-(2-(4-((3-(3-Fluoro-4-methoxyphenyl)imidazo[1,2-a]pyrazin-8-yl)amino)-N,2-dimethylbenzamido)ethoxy)-N,N,N-trimethylethan-1-aminium Chloride], for which the IC90 was 1050 nM. As to `Cc1cc(Nc2nccn3c(-c4ccc(OC(F)F)cc4)cnc23)ccc1C(=O)N1CCN(C(=O)NCC[N+](C)(C)C)CC1` [Example 36, 2-[[4-[4-[[3-[4-(Difluoromethoxy)phenyl]imidazo[1,2-a]pyrazin-8-yl]amino]-2-methyl-benzoyl]piperazine-1-carbonyl]amino]ethyl-trimethyl-ammonium Formate], the IC90 amounted to 431 nM. As for `CN(CCC1CC[N+](C)(C)CC1)C(=O)c1ccc(Nc2nccn3c(-c4ccc(OCC#N)c(F)c4F)cnc23)cc1Cl` [Example 38, 2-Chloro-4-[[3-[4-(cyanomethoxy)-2,3-difluoro-phenyl]imidazo[1,2-a]pyrazin-8-yl]amino]-N-[2-(1,1-dimethylpiperidin-1-ium-4-yl)ethyl]-N-methyl-benzamide 2,2,2-trifluoroacetate], the IC90 was found to be 213 nM. For the compound `Cc1cc(Nc2nccn3c(-c4ccc(OC(F)F)cc4)cnc23)ccc1C(=O)N(C)CCC1CCN(C(=O)CC(O)C[N+](C)(C)C)CC1` (stereo not drawn) [Example 39, 4-(4-(2-(4-((3-(4-(Difluoromethoxy)phenyl)imidazo[1,2-a]pyrazin-8-yl)amino)-N,2-dimethylbenzamido)ethyl)piperidin-1-yl)-2-hydroxy-N,N,N-trimethyl-4-oxobutan-1-aminium Formate], the IC90 was found to be 2380 nM.

With `CCc1cc(Nc2nccn3c(-c4ccc(OC)c(F)c4F)cnc23)ccc1C(=O)NCCOCC[N+](CC)(CC)CC` [Example 40, 2-(2-(4-((3-(2,3-Difluoro-4-methoxyphenyl)imidazo[1,2-a]pyrazin-8-yl)amino)-2-ethylbenzamido)ethoxy)-N,N,N-triethylethan-1-aminium Formate], the IC90 was 165 nM.

On to `CCc1cc(Nc2nccn3c(-c4ccc(OCC#N)c(F)c4F)cnc23)ccc1C(=O)NCCOCC[N+](C)(C)C` [Example 41, 2-[2-[[4-[[3-[4-(Cyanomethoxy)-2,3-difluoro-phenyl]imidazo[1,2-a]pyrazin-8-yl]amino]-2-ethyl-benzoyl]amino]ethoxy]ethyl-trimethyl-ammonium Iodide], for which the 90% effect concentration (IC90) was 132 nM. Take `Cc1cc(Nc2nccn3c(-c4ccc(OC(F)F)cc4)cnc23)ccc1C(=O)N1CCN(C(=O)C[N+](C)(C)C)CC1` [Example 42, [2-[4-[4-[[3-[4-(Difluoromethoxy)phenyl]imidazo[1,2-a]pyrazin-8-yl]amino]-2-methyl-benzoyl]piperazin-1-yl]-2-oxo-ethyl]-trimethyl-ammonium Chloride]: the concentration for an effect of 90% (IC90) was 414 nM.

On to `COc1ccc(-c2cnc3c(Nc4ccc(C(=O)NCCOCC[N+](C)(C)C)c(Br)c4)nccn23)c(F)c1F` [Example 44, 2-[2-[[2-bromo-4-[[3-(2,3-difluoro-4-methoxy-phenyl)imidazo[1,2-a]pyrazin-8-yl]amino]benzoyl]amino]ethoxy]ethyl-trimethyl-ammonium 2,2,2-trifluoroacetate], for which the IC90 turned out to be 148 nM. Still for that read-out and setting: the result for `CCC[N+](CCC)(CCC)CCOCCNC(=O)c1ccc(Nc2nccn3c(-c4ccc(OCC#N)c(F)c4F)cnc23)cc1Cl` [Example 45, 2-[2-[[2-Chloro-4-[[3-[4-(cyanomethoxy)-2,3-difluoro-phenyl]imidazo[1,2-a]pyrazin-8-yl]amino]benzoyl]amino]ethoxy]ethyl-tripropyl-ammonium Iodide] reads 321 nM.

In the case of `C[N+]1(CCOCCNC(=O)c2ccc(Nc3nccn4c(-c5ccc(OCC#N)c(F)c5F)cnc34)cc2Cl)CCCC1` [Example 46, 2-Chloro-4-[[3-[4-(cyanomethoxy)-2,3-difluoro-phenyl]imidazo[1,2-a]pyrazin-8-yl]amino]-N-[2-[2-(1-methylpyrrolidin-1-ium-1-yl)ethoxy]ethyl]benzamide Formate], the IC90 is 161 nM. On to `COc1ccc(-c2cnc3c(Nc4ccc(C(=O)NCCC[N+](C)(C)C)c(Cl)c4)nccn23)c(F)c1F` [Example 47, 3-[[2-Chloro-4-[[3-(2,3-difluoro-4-methoxy-phenyl)imidazo[1,2-a]pyrazin-8-yl]amino]benzoyl]amino]propyl-trimethyl-ammonium Formate], for which the IC90 is 383 nM. Same read-out and setting: the result for `CC[N+](CC)(CC)CCCNC(=O)c1ccc(Nc2nccn3c(-c4ccc(OC)c(F)c4F)cnc23)cc1Cl` [Example 48, 3-[[2-Chloro-4-[[3-(2,3-difluoro-4-methoxy-phenyl)imidazo[1,2-a]pyrazin-8-yl]amino]benzoyl]amino]propyl-triethyl-ammonium Formate] reads 566 nM.

Staying with this test, now noted: ATCC17978, 16 h, read-out: ATCC 17978 IC90.
Take `COc1ccc(-c2cnc3c(Nc4ccc(C(=O)N5CC[C@@H](C(=O)NCC[N+](C)(C)C)[C@H](O)C5)c(C)c4)nccn23)cc1F` [Example 37, 2-[[(3S,4R)-1-[4-[[3-(3-fluoro-4-methoxy-phenyl)imidazo[1,2-a]pyrazin-8-yl]amino]-2-methyl-benzoyl]-3-hydroxy-piperidine-4-carbonyl]amino]ethyl-trimethyl-ammonium Formate]: the IC90 was 4770 nM.
